Measurements: US20110288086A1, “POLYCYCLIC QUINAZOLINES, PREPARATION THEREOF, AND USE THEREOF” (priority 2010, published 2011)
Counter-ions that a name gives are not always drawn.

Legend:
aurora kinase B = biological target: T1, aurora kinase B (Homo sapiens, UniProt Q96GD4); assay: Aurora kinase B inhibition in vitro (Invitrogen aurora kinase screening kit PV3174); type: biochemical
T1 construct: purchased Invitrogen PV3174

[1] = tested on: Jurkat E6-1 human T-cell lymphoma; assay: Tumor cell inhibition ratio, CCK-8 kit, Jurkat E6-1; settings: Jurkat E6.1, read-out: Antiproliferative effect (inhibition ratio) E6-1
Source text: (§1) The inhibitory activities of the compounds on tumor cells in vitro

EGFR tyrosine kinase = EGFR tyrosine kinase (Homo sapiens, UniProt P00533); assay: EGFR tyrosine kinase inhibition in vitro (Invitrogen EGFR inhibitor screening kit PV3193)
Source text: The inhibitory activities of EGFR tyrosine kinase in vitro
Erlotinib hydrochloride was used as a positive control drug.

[2] = tested on: K562 human chronicity marrow leukemic cells; assay: Tumor cell inhibition ratio, CCK-8 kit, K562; settings: K562, read-out: Antiproliferative effect (inhibition ratio) K562
Source text: as §1

[3] = tested on: Hep3B2.1-7 human hepatoma carcinoma cells; assay: Tumor cell inhibition ratio, CCK-8 kit, Hep3B; settings: read-out: Antiproliferative effect (inhibition ratio) Hep3B
Source text: as §1

[4] = tested on: A549 human lung cancer cells; assay: Tumor cell inhibition ratio, CCK-8 kit, A549; settings: A549, read-out: Antiproliferative effect (inhibition ratio) A549
Source text: as §1

[5] = tested on: MDA-MB-435s human breast carcinoma cells; assay: Tumor cell inhibition ratio, CCK-8 kit, MDA-MB-435s; settings: read-out: Antiproliferative effect (inhibition ratio) 435s
Source text: as §1

[6] = tested on: Colo320 human rectal cancer cells; assay: Tumor cell inhibition ratio, CCK-8 kit, Colo320; settings: COLO 320, read-out: Antiproliferative effect (inhibition ratio) Colo320
Source text: as §1

[7] = tested on: PANC-1 human pancreatic cancer cells; assay: Tumor cell inhibition ratio, CCK-8 kit, PANC-1; settings: PANC-1, read-out: Antiproliferative effect (inhibition ratio) PANC-1
Source text: as §1

[8] = tested on: Hut78 T-Lymphocytic Leukemia cells; assay: Tumor cell inhibition ratio, CCK-8 kit, Hut78; settings: Homo sapiens, HuT78, read-out: Antiproliferative effect (inhibition ratio) Hut-78
Source text: as §1

[9] = tested on: PC-3 human carcinoma of prostate; assay: Tumor cell inhibition ratio, CCK-8 kit, PC-3; settings: read-out: Antiproliferative effect (inhibition ratio) PC-3
Source text: as §1

T1 sequence (Q96GD4 whole entry): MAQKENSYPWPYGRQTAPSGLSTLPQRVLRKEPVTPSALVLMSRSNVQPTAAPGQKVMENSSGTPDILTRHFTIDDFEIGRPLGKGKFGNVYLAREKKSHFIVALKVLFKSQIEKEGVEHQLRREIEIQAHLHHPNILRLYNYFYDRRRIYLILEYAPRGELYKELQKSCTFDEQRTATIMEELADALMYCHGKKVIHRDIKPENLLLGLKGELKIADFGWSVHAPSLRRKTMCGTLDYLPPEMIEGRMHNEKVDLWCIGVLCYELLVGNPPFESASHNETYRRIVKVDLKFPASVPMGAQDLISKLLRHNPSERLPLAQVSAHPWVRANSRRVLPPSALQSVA
Sequence of EGFR tyrosine kinase (P00533 25-1210): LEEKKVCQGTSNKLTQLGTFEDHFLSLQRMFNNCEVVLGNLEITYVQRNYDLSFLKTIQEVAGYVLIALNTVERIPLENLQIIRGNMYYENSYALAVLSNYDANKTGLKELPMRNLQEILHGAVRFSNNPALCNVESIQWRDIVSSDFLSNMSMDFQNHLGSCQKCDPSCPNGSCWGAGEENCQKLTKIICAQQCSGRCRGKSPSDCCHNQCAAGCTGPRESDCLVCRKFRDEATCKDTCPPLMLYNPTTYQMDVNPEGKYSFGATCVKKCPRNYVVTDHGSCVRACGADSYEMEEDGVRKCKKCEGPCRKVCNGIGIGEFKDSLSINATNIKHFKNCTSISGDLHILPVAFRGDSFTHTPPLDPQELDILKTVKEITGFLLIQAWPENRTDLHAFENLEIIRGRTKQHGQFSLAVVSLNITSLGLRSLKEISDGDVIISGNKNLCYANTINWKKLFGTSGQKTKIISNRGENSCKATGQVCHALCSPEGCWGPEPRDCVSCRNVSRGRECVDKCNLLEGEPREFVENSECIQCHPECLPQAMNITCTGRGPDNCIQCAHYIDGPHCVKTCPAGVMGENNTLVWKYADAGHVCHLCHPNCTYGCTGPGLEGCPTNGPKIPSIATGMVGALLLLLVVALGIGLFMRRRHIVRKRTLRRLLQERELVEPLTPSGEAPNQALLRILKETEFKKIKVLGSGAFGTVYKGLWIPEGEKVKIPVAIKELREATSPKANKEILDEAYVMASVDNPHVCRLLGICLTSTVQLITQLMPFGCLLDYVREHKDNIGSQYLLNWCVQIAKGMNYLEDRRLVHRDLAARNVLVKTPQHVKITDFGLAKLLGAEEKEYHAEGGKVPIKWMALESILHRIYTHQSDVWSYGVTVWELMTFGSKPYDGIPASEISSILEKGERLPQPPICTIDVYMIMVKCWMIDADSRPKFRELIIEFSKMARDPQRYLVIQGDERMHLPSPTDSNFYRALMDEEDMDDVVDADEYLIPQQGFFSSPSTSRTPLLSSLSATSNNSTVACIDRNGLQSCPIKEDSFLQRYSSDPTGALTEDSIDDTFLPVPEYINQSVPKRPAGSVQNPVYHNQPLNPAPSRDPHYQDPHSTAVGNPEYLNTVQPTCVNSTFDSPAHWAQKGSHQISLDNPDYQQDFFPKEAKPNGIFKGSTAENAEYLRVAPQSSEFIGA

Row | SMILES | The inhibition ratio of the compound on Aurora B(%) (aurora kinase B; 40 μM) | The inhibition ratio of the compound on Aurora B(%) (aurora kinase B; 200 μM) | inhibition at 10 µM [1] [%] | inhibition at 100 µM [1] [%] | The inhibition ratio of the compound on EGFR(%) (EGFR tyrosine kinase; 40 μM) | The inhibition ratio of the compound on EGFR(%) (EGFR tyrosine kinase; 200 μM) | inhibition at 10 µM [2] [%] | inhibition at 100 µM [2] [%] | inhibition at 10 µM [3] [%] | inhibition at 100 µM [3] [%] | inhibition at 10 µM [4] [%] | inhibition at 100 µM [4] [%] | inhibition at 10 µM [5] [%] | inhibition at 100 µM [5] [%] | inhibition at 10 µM [6] [%] | inhibition at 100 µM [6] [%] | inhibition at 10 µM [7] [%] | inhibition at 100 µM [7] [%] | inhibition at 10 µM [8] [%] | inhibition at 100 µM [8] [%] | further results
1 | COCCOc1cc2c(cc1OCCOC)C1=Nc3cccc(Cl)c3CN1C=N2.Cl [Compound V-1, 9-chloro-2,3-bis(2-methoxyethoxy)-8H-quinazolino[4,3-b]quinazoline hydrochloride monohydrate] | 47.6 | 88.6 | 55 | 81.7 | 57.6 | 91.5 | 40.7 | 87 | 50.4 | 89.3 | 40.5 | 81.4 | 60.9 | 91.2 | 55.1 | 81 | 35.7 | 78.1 | 16.1 | 64.5 | inhibition at 10 µM [9]: 51.6%; inhibition at 100 µM [9]: 62.4%
2 | COCCOc1cc2c(cc1OCCOC)C1=Nc3cccc(F)c3CN1C=N2 [Compound V-3, 9-fluoro-2,3-bis(2-methoxyethoxy)-8H-quinazolino[4,3-b]quinazoline mesylate] | 39.5 | 83.6 | 42 | 78 | 49.5 | 81.6 | 43.1 | 88.8 | 42.3 | 80.7 | 44.6 | 76.2 | 3.38 | 84.1 | 34.8 | 79 | 30.9 | 75.4 | 44.1 | 84.1 | inhibition at 10 µM [9]: 34%; inhibition at 100 µM [9]: 87%
3 | COCCOc1cc2c(cc1OCCOC)C1=Nc3cccc(NC(=O)c4ccccc4)c3CN1C=N2 [Compound V-12, N-{2,3-bis(2-methoxyethoxy)-8H-quinazolino[4,3-b]quinazoline}benzamide] | 40.1 | 87.9 | – | – | 25.8 | 62.7 | – | – | – | – | – | – | – | – | – | – | – | – | – | – | –
4 | COCCOc1cc2c(cc1OCCOC)C1=Nc3cc(CO)cc(N)c3CN1C=N2 [Compound V-21, 9-amino-11-hydroxymethyl-2,3-bis(2-methoxyethoxy)-8H-quinazolino[4,3-b]quinazoline] | – | – | 43.5 | 90.3 | – | – | 26.9 | 81.6 | 21.8 | 86.3 | 45.3 | 78 | 67 | 74.9 | 31.8 | 87 | 52.7 | 89.4 | 10.3 | 52.7 | inhibition at 10 µM [9]: 27.6%; inhibition at 100 µM [9]: 62.6%
5 | COc1cc2c(cc1OCCCN1CCOCC1)C1=Nc3ccc(F)c(Cl)c3CN1C=N2 [Compound V-23, 4-(3-((9-chloro-10-fluoro-3-methoxy-8H-quinazolino[4,3-b]quinazoline-2-yl)oxy)propyl)morpholine di-p-toluenesulfonate] | – | – | 56.3 | 77.5 | – | – | 58.7 | 73.4 | 27.1 | 48.7 | 10.4 | 22.5 | 20.7 | 52.2 | 52.3 | 99.5 | 21.5 | 98.8 | 42 | 99.8 | inhibition at 10 µM [9]: 30.7%; inhibition at 100 µM [9]: 97.6%
6 | COc1cc2c(cc1OCCCN1CCNCC1)C1=Nc3cccc(F)c3CN1C=N2 [Compound V-25, 9-fluoro-3-methoxy-2-(3-(piperazinyl-1-yl)propoxy)-8H-quinazolino[4,3-b]quinazoline] | – | – | 31.1 | 81.3 | – | – | 44.1 | 82.8 | 21.3 | 64.7 | 47 | 79.3 | 20.4 | 77 | 33.5 | 79.2 | 44.2 | 88.6 | 19 | 21.9 | inhibition at 10 µM [9]: 53.4%; inhibition at 100 µM [9]: 64.4%
7 | C#Cc1cccc2c1CN1C=Nc3cc(OC)c(OCCCN4CCOCC4)cc3C1=N2 [Compound V-26, 4-(3-((9-ethynyl-3-methoxy-8H-quinazolino[4,3-b]quinazoline-2-yl)oxy)propyl)morpholine] | – | – | 44.6 | 85.4 | – | – | 4.29 | 11.7 | 28.4 | 89.5 | 27.7 | 93.6 | 38 | 71.4 | 32.1 | 81.4 | 40.7 | 76.6 | 32.1 | 72.4 | inhibition at 10 µM [9]: 5.86%; inhibition at 100 µM [9]: 30.3%
8 | COc1cc2c(cc1OCCCN1CCOCC1)C1=Nc3cccc(C#N)c3CN1C=N2 [Compound V-27, 3-methoxy-2-(3-morpholinylpropoxy)-8H-quinazolino[4,3-b]quinazoline-9-nitrile] | – | – | 24 | 75.4 | – | – | 22.4 | 62.2 | 2.44 | 67.3 | 39.8 | 80 | 12 | 79.7 | 34.5 | 84.8 | 41.8 | 99.8 | 65.6 | 95.9 | inhibition at 10 µM [9]: 25.2%; inhibition at 100 µM [9]: 84%
9 | COc1cc2c(cc1OCCCN1CCOCC1)C1=Nc3cc(COS(C)(=O)=O)cc([N+](=O)[O-])c3CN1C=N2 [Compound V-29] | 11.2 | 78.9 | – | – | 35.2 | 86.5 | – | – | – | – | – | – | – | – | – | – | – | – | – | – | –
10 | COc1cc2c(cc1OC)C1=Nc3ccc(F)c(Cl)c3CN1C=N2 [Compound V-30, 9-chloro-10-fluoro-2,3-dimethoxy-8H-quinazolino[4,3-b]quinazoline] | 46.3 | 79.6 | – | – | 27.8 | 82.1 | – | – | – | – | – | – | – | – | – | – | – | – | – | – | –
11 | CS(=O)(=O)CCNCc1ccc(-c2ccc3c(c2)C2=Nc4ccc(F)c(Cl)c4CN2C=N3)o1 [Compound V-34, N-((5-(9-chloro-10-fluoro-8H-quinazolino[4,3-b]quinazoline-2-yl)furan-2-yl)methyl)-2-(methylsulfonyl)ethylamine] | 17.8 | 92.6 | – | – | 21.6 | 72.6 | – | – | – | – | – | – | – | – | – | – | – | – | – | – | –
12 | C#Cc1cccc2c1CN1C=Nc3ccc(-c4ccc(CNCCS(C)(=O)=O)o4)cc3C1=N2 [Compound V-35, N-((5-(9-ethynyl-8H-quinazolino[4,3-b]quinazoline-2-yl)furan-2-yl)methyl)-2-(methylsulfonyl)ethylamine] | 3.3 | 79.8 | – | – | 13.3 | 75.8 | – | – | – | – | – | – | – | – | – | – | – | – | – | – | –
13 | CS(=O)(=O)CCNCc1ccc(-c2ccc3c(c2)C2=Nc4cc(Cl)ccc4CN2C=N3)o1 [Compound V-36, N-((5-(11-chloro-8H-quinazolino[4,3-b]quinazoline-2-yl)furan-2-yl)methyl)-2-(methylsulfonyl)ethylamine] | 52.6 | 97.9 | – | – | 55.6 | 87.9 | – | – | – | – | – | – | – | – | – | – | – | – | – | – | –
14 | Cc1cc(Nc2cc(N3CCN(C)CC3)nc(Sc3ccc(NC(=O)C4CC4)cc3)n2)n[nH]1 [VX-680, reference compound] | 35.2 | 81.6 | – | – | – | – | – | – | – | – | – | – | – | – | – | – | – | – | – | – | –
